Experimental data published in PubChem BioAssay (NCI).
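Tested at 5 concentrations; 48 h exposure; 96-well plates; endpoints linearly interpolated, else capped at highest concentration. GI50 marks 50% less growth. Definition used: TGI = concentration required for complete inhibition of growth.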

How the values were obtained:
Experiment in all cases: NCI-60 cell line screen, 48 h
OVCAR-5 ovarian = system: OVCAR-5 ovarian
OVCAR-8 ovarian = system: OVCAR-8 ovarian
MDA-MB-231 breast = system: MDA-MB-231 breast
NCI-H522 lung = system: NCI-H522 lung
SF-268 CNS = system: SF-268 CNS
SK-MEL-2 melanoma = system: SK-MEL-2 melanoma
PC-3 prostate = system: PC-3 prostate
SNB-19 CNS = system: SNB-19 CNS
UACC-257 melanoma = system: UACC-257 melanoma
MALME-3M melanoma = system: MALME-3M melanoma
HCT-116 colon = system: HCT-116 colon
M14 melanoma = system: M14 melanoma
HL-60(TB) leukemia = system: HL-60(TB) leukemia
MOLT-4 leukemia = system: MOLT-4 leukemia
HCC-2998 colon = system: HCC-2998 colon
NCI-H460 lung = system: NCI-H460 lung
U251 CNS = system: U251 CNS
NCI/ADR-RES ovarian = system: NCI/ADR-RES ovarian
HCT-15 colon = system: HCT-15 colon
NCI-H23 lung = system: NCI-H23 lung
SK-MEL-5 melanoma = system: SK-MEL-5 melanoma
UACC-62 melanoma = system: UACC-62 melanoma
SF-539 CNS = system: SF-539 CNS
ACHN renal = system: ACHN renal
HS 578T breast = system: HS 578T breast
RPMI-8226 leukemia = system: RPMI-8226 leukemia
DU-145 prostate = system: DU-145 prostate
786-0 renal = system: 786-0 renal
SK-MEL-28 melanoma = system: SK-MEL-28 melanoma
LOX IMVI melanoma = system: LOX IMVI melanoma
MDA-MB-435 = system: MDA-MB-435
TK-10 renal = system: TK-10 renal
K-562 leukemia = system: K-562 leukemia
OVCAR-3 ovarian = system: OVCAR-3 ovarian
MCF7 breast = system: MCF7 breast
CAKI-1 renal = system: CAKI-1 renal
HOP-92 NSCLC = system: HOP-92 NSCLC
SF-295 CNS = system: SF-295 CNS
UO-31 renal = system: UO-31 renal
KM12 colon = system: KM12 colon
IGROV1 ovarian = system: IGROV1 ovarian
SN12C renal = system: SN12C renal
SNB-75 CNS = system: SNB-75 CNS
SR leukemia = system: SR leukemia
SW-620 colon = system: SW-620 colon
A498 renal = system: A498 renal
RXF 393 renal = system: RXF 393 renal
CCRF-CEM leukemia = system: CCRF-CEM leukemia
EKVX NSCLC = system: EKVX NSCLC
BT-549 breast = system: BT-549 breast
OVCAR-4 ovarian = system: OVCAR-4 ovarian

CN1CCN(CCOc2ccc(-c3cnc4c(-c5cccc(F)c5F)cnn4c3)cc2)CC1
GI50 (OVCAR-5 ovarian): 1990 nM | TGI (OVCAR-5 ovarian): 4430 nM | GI50 (OVCAR-8 ovarian): 2100 nM | TGI (OVCAR-8 ovarian): 5260 nM | GI50 (MDA-MB-231 breast): 1600 nM | TGI (MDA-MB-231 breast): 3360 nM | GI50 (NCI-H522 lung): 1590 nM | TGI (NCI-H522 lung): 3270 nM | GI50 (SF-268 CNS): 2150 nM | TGI (SF-268 CNS): 5240 nM | GI50 (SK-MEL-2 melanoma): 15500 nM | TGI (SK-MEL-2 melanoma): 31000 nM | GI50 (PC-3 prostate): 1960 nM | TGI (PC-3 prostate): 5640 nM | GI50 (SNB-19 CNS): 1910 nM | TGI (SNB-19 CNS): 3880 nM | GI50 (UACC-257 melanoma): 1770 nM | TGI (UACC-257 melanoma): 3490 nM | GI50 (MALME-3M melanoma): 1530 nM | TGI (MALME-3M melanoma): 3010 nM | GI50 (HCT-116 colon): 1660 nM | TGI (HCT-116 colon): 3040 nM | GI50 (M14 melanoma): 1710 nM | TGI (M14 melanoma): 3200 nM | GI50 (HL-60(TB) leukemia): 1910 nM | TGI (HL-60(TB) leukemia): 3790 nM | GI50 (MOLT-4 leukemia): 1600 nM | TGI (MOLT-4 leukemia): 3530 nM | GI50 (HCC-2998 colon): 11700 nM | TGI (HCC-2998 colon): 24700 nM | GI50 (NCI-H460 lung): 1670 nM | TGI (NCI-H460 lung): 3190 nM | GI50 (U251 CNS): 1440 nM | TGI (U251 CNS): 2940 nM | GI50 (NCI/ADR-RES ovarian): 2210 nM | TGI (NCI/ADR-RES ovarian): 5490 nM | GI50 (HCT-15 colon): 1480 nM | TGI (HCT-15 colon): 2910 nM | GI50 (NCI-H23 lung): 1700 nM | TGI (NCI-H23 lung): 3330 nM | GI50 (SK-MEL-5 melanoma): 1670 nM | TGI (SK-MEL-5 melanoma): 3070 nM | GI50 (UACC-62 melanoma): 1840 nM | TGI (UACC-62 melanoma): 3610 nM | GI50 (SF-539 CNS): 1740 nM | TGI (SF-539 CNS): 3170 nM | GI50 (ACHN renal): 1620 nM | TGI (ACHN renal): 2970 nM | GI50 (HS 578T breast): 1910 nM | TGI (HS 578T breast): 4740 nM | GI50 (RPMI-8226 leukemia): 1450 nM | TGI (RPMI-8226 leukemia): 4010 nM | GI50 (DU-145 prostate): 1690 nM | TGI (DU-145 prostate): 3440 nM | GI50 (786-0 renal): 1630 nM | TGI (786-0 renal): 3070 nM | GI50 (SK-MEL-28 melanoma): 1770 nM | TGI (SK-MEL-28 melanoma): 3260 nM | GI50 (LOX IMVI melanoma): 1800 nM | TGI (LOX IMVI melanoma): 3340 nM | GI50 (MDA-MB-435): 1680 nM | TGI (MDA-MB-435): 3070 nM | GI50 (TK-10 renal): 2010 nM | TGI (TK-10 renal): 3620 nM | GI50 (K-562 leukemia): 1660 nM | TGI (K-562 leukemia): 3530 nM | GI50 (OVCAR-3 ovarian): 1710 nM | TGI (OVCAR-3 ovarian): 3420 nM | GI50 (MCF7 breast): 1320 nM | TGI (MCF7 breast): 2950 nM | GI50 (CAKI-1 renal): 1520 nM | TGI (CAKI-1 renal): 2910 nM | GI50 (HOP-92 NSCLC): 4140 nM | TGI (HOP-92 NSCLC): 26400 nM | GI50 (SF-295 CNS): 1800 nM | TGI (SF-295 CNS): 3330 nM | GI50 (UO-31 renal): 1250 nM | TGI (UO-31 renal): 2550 nM | GI50 (KM12 colon): 1720 nM | TGI (KM12 colon): 3390 nM | GI50 (IGROV1 ovarian): 1610 nM | TGI (IGROV1 ovarian): 3270 nM | GI50 (SN12C renal): 2080 nM | TGI (SN12C renal): 4670 nM | GI50 (SNB-75 CNS): 1410 nM | TGI (SNB-75 CNS): 2730 nM | GI50 (SR leukemia): 282 nM | TGI (SR leukemia): 1160 nM | GI50 (SW-620 colon): 1860 nM | TGI (SW-620 colon): 3590 nM | GI50 (A498 renal): 5410 nM | TGI (A498 renal): 19700 nM | GI50 (RXF 393 renal): 1690 nM | TGI (RXF 393 renal): 3490 nM | GI50 (CCRF-CEM leukemia): 1550 nM | TGI (CCRF-CEM leukemia): 3810 nM | GI50 (EKVX NSCLC): 1590 nM | TGI (EKVX NSCLC): 3750 nM | GI50 (BT-549 breast): 1570 nM | TGI (BT-549 breast): 3150 nM | GI50 (OVCAR-4 ovarian): 1280 nM | TGI (OVCAR-4 ovarian): 2950 nM
